Laboratory results published in EP1981504B1, “THIADIAZOLE DERIVATIVES FOR THE TREATMENT OF NEURO DEGENERATIVE DISEASES” (NV reMYND, priority 2006, dated 2007).
In brackets after ≈: the same amount, converted by molar mass.

System: M17-SYNwt cells
Assay: α-synuclein cytotoxicity assay (LDH leakage from paraquat-treated α-synuclein over-expressing neuroblastoma cells)
Type: cell-based, human
Conditions: paraquat 32 mM, 40 hours, LDH release; for EC50: Homo sapiens, Neuroblastoma cell, 10 point curves in duplicate; for %I: percent inhibition of synuclein cytotoxicity at most effective concentration of test compound, relative to untreated paraquat cells
Summary of the method: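 M17 neuroblastoma cells over-expressing wild-type α-synuclein were challenged with paraquat, and cytotoxicity was read as LDH release. Protection was expressed as percent reduction of paraquat-induced LDH release relative to untreated paraquat cells and control cells. Actives were retested in 10-point duplicate dose responses.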

Row | SMILES | EC50 [µg/mL] | %I [%]
1 | CC1CN(c2nc(Cc3ccc(F)cc3)ns2)CCN1C(=O)c1cccc(C(F)(F)F)c1 (stereo not drawn) [Compound 145, 1-(3-trifluoromethylbenzoyl)-4-[3-(4-fluorobenzyl)-1,2,4-thiadiazol-5-yl]-2-methylpiperazine] | 0.62 (≈ 1.33 µM) | 60
2 | COc1cccc(Cc2nsc(N3CCN(C(=O)c4ccc(C(C)(C)C)cc4)C(C)C3)n2)c1 (stereo not drawn) [Compound 146, 1-(4-tert-butylbenzoyl)-4-[3-(3-methoxybenzyl)-1,2,4-thiadiazol-5-yl]-2-methylpiperazine] | 0.72 (≈ 1.55 µM) | 94
3 | CCc1ccc(C(=O)N2CCN(c3nc(Cc4ccc(C)cc4)ns3)CC2C)cc1 (stereo not drawn) [Compound 147, 1-(4-ethylbenzoyl)-4-[3-(4-methylbenzyl)-1,2,4-thiadiazol-5-yl]-2-methylpiperazine] | 0.84 (≈ 2 µM) | 88
4 | CC1CN(c2nc(Cc3ccc(F)cc3)ns2)CCN1C(=O)c1ccccc1Br (stereo not drawn) [Compound 148, 1-(2-bromobenzoyl)-4-[3-(4-fluorobenzyl)-1,2,4-thiadiazol-5-yl]-2-methylpiperazine] | 0.86 (≈ 1.81 µM) | 56
5 | Cc1ccc(Cc2nsc(N3CCN(C(=O)c4ccccc4F)C(C)C3)n2)cc1 (stereo not drawn) [Compound 149, 1-(2-fluorobenzoyl)-4-[3-(4-methylbenzyl)-1,2,4-thiadiazol-5-yl]-2-methylpiperazine] | 0.98 (≈ 2.39 µM) | 105
6 | CC1CN(c2nc(Cc3ccccc3)ns2)CCN1C(=O)c1cccc(F)c1 (stereo not drawn) [Compound 150, 1-(3-fluorobenzoyl)-4-[3-benzyl-1,2,4-thiadiazol-5-yl]-2-methylpiperazine] | 1.14 (≈ 2.88 µM) | 99
7 | Cc1ccc(Cc2nsc(N3CCN(C(=O)c4ccc(F)cc4)C(C)C3)n2)cc1 (stereo not drawn) [Compound 151, 1-(4-fluorobenzoyl)-4-[3-(4-methylbenzyl)-1,2,4-thiadiazol-5-yl]-2-methylpiperazine] | 1.14 (≈ 2.78 µM) | 73
8 | Cc1ccccc1C(=O)N1CCN(c2nc(Cc3ccc(F)cc3)ns2)CC1 [Compound 152, 1-(2-methylbenzoyl)-4-[3-(4-fluorobenzyl)-1,2,4-thiadiazol-5-yl]piperazine] | 1.15 (≈ 2.9 µM) | 66
9 | O=C(c1ccc(F)cc1)N1CCN(c2nc(Cc3ccc(Cl)cc3)ns2)CC1 [Compound 153, 1-(4-fluorobenzoyl)-4-[3-(4-chlorobenzyl)-1,2,4-thiadiazol-5-yl]piperazine] | 1.44 (≈ 3.45 µM) | 53
10 | CC1CN(c2nc(Cc3ccccc3)ns2)CCN1C(=O)c1ccc(F)cc1 (stereo not drawn) [Compound 154, 1-(4-fluorobenzoyl)-4-[3-benzyl-1,2,4-thiadiazol-5-yl]-2-methylpiperazine] | 1.58 (≈ 3.98 µM) | 75
11 | Cc1ccc(Cc2nsc(N3CCN(C(=O)c4ccc(Cl)cc4)CC3)n2)cc1 [Compound 155, 1-(4-chlorobenzoyl)-4-[3-(4-methylbenzyl)-1,2,4-thiadiazol-5-yl]piperabine] | 1.64 (≈ 3.97 µM) | 76
12 | Cc1ccc(Cc2nsc(N3CCN(C(=O)c4cccc(F)c4)C(C)C3)n2)cc1 (stereo not drawn) [Compound 156, 1-(3-fluorobenzoyl)-4-[3-(4-methylbenzyl)-1,2,4-thiadiazol-5-yl]-2-methylpiperazine] | 1.67 (≈ 4.07 µM) | 86
13 | O=C(c1cccc(F)c1)N1CCN(c2nc(Cc3ccc(Cl)cc3)ns2)CC1 [Compound 157, 1-(3-fluorobenzoyl)-4-[3-(4-chlorobenzyl)-1,2,4-thiadiazol-5-yl]piperazine] | 1.7 (≈ 4.08 µM) | 70
14 | Cc1ccc(Cc2nsc(N3CCN(C(=O)c4ccccc4)CC3)n2)cc1 [Compound 158, 1-benzoyl-4-[3-(4-methylbenzyl)-1,2,4-thiadiazol-5-yl]piperazine] | 2.1 (≈ 5.55 µM) | 57
15 | O=C(c1ccccc1F)N1CCN(c2nc(Cc3ccc(Cl)cc3)ns2)CC1 [Compound 159, 1-(2-fluorobenzoyl)-4-[3-(4-chlorobenzyl)-1,2,4-thiadiazol-5-yl]piperazine] | 2.85 (≈ 6.84 µM) | 48
16 | Cc1ccc(Cc2nsc(N3CCN(C(=O)c4ccc(F)cc4)CC3)n2)cc1 [Compound 160, 1-(4-fluorobenzoyl)-4-[3-(4-methylbenzyl)-1,2,4-thiadiazol-5-yl]piperazine] | 2.87 (≈ 7.24 µM) | 88
17 | Cc1ccc(Cc2nsc(N3CCN(C(=O)c4ccc5c(c4)OCO5)C(C)C3)n2)cc1 (stereo not drawn) [Compound 161, 1-(1,3-benzodioxol-5-ylcarbonyl)-4-[3-(4-methylbenzyl)-1,2,4-thiadiazol-5-yl]-2-methyl+B176piperazine] | 3.36 (≈ 7.7 µM) | 101
18 | Cc1ccc(Cc2nsc(N3CCN(C(=O)c4cccc(F)c4)CC3)n2)cc1 [Compound 162, 1-(3-flurorbenzoyl)-4-[3-(4-methylbenzyl)-1,2,4-thiadiazol-5-yl]piperazine] | 3.4 (≈ 8.58 µM) | 101
19 | O=C(c1ccc(F)cc1)N1CCN(c2nc(Cc3ccccc3)ns2)CC1 [Compound 163, 1-(4-fluorobenzoyl)-4-[3-benzyl-1,2,4-thiadiazol-5-yl]piperazine] | 3.61 (≈ 9.44 µM) | 67
20 | Cc1ccc(Cc2nsc(N3CCN(C(=O)c4ccc(Br)cc4)CC3)n2)cc1 [Compound 164, 1-(4-bromobenzoyl)-4-[3-(4-methylbenzyl)-1,2,4-thiadiazol-5-yl]piperazine] | 3.86 (≈ 8.44 µM) | 60
21 | CCc1ccc(C(=O)N2CCN(c3nc(Cc4ccc(Cl)cc4)ns3)CC2)cc1 [Compound 165, 1-(4-ethylbenzoyl)-4-[3-(4-chlorobenzyl)-1,2,4-thiadiazol-5-yl]piperazine] | – | 133
22 | CC1CN(c2nc(Cc3ccc(F)cc3)ns2)CCN1C(=O)c1ccccc1Cl (stereo not drawn) [Compound 166, 1-(2-chlorobenzoyl)-4-[3-(4-fluorobenzyl)-1,2,4-thiadiazol-5-yl]-2-methylpiperazine] | – | 123
23 | CC1CN(c2nc(Cc3ccc(Cl)cc3)ns2)CCN1C(=O)c1ccccc1F (stereo not drawn) [Compound 167, 1-(2-fluorobenzoyl)-4-[3-(4-chlorobenzyl)-1,2,4-thiadiazol-5-yl]-2-methylpiperazine] | – | 117
24 | COc1cccc(Cc2nsc(N3CCN(C(=O)c4ccc(C(F)(F)F)cc4)C(C)C3)n2)c1 (stereo not drawn) [Compound 168, 1-(4-trifluoromethylbenzoyl)-4-[3-(3-methoxybenzyl)-1,2,4-thiadiazol-5-yl]-2-methylpiperazine] | – | 91
25 | Cc1ccc(Cc2nsc(N3CCN(C(=O)c4ccccc4)C(C)C3)n2)cc1 (stereo not drawn) [Compound 169, 1-benzoyl-4-[3-(4-methylbenzyl)-1,2,4-thiadiazol-5-yl]-2-methylpiperazine] | – | 91
26 | COc1cccc(Cc2nsc(N3CCN(C(=O)c4ccc(Br)cc4)C(C)C3)n2)c1 (stereo not drawn) [Compound 170, 1-(4-bromobenzoyl)-4-[3-(3-methoxybenzyl)-1,2,4-thiadiazol-5-yl]-2-methylpiperazine] | – | 89
27 | Cc1ccc(Cc2nsc(N3CCN(C(=O)c4ccc(C(F)(F)F)cc4)CC3)n2)cc1 [Compound 171, 1-(4-trifluoromethylbenzoyl)-4-[3-(4-methylbenzyl)-1,2,4-thiadiazol-5-yl]piperazine] | – | 86
28 | Cc1ccc(C(=O)N2CCN(c3nc(Cc4ccc(F)cc4)ns3)CC2C)cc1[N+](=O)[O-] (stereo not drawn) [Compound 172, 1-(3-nitro-4-methylbenzoyl)-4-[3-(4-fluorobenzyl)-1,2,4-thiadiazol-5-yl]-2-methylpiperazine] | – | 86
